Laboratory results published in patent US20190358247A1 (The Medical College of Wisconsin, Inc., priority 2016, published 2019).
Where “and” joins values, the source holds several entries; their conditions need not be identical. Identical values can stand only once.

Assays:
MCF-10A = test: IncuCyte cell confluence assay, nonmalignant breast epithelial cells; type: cell-based
Method: IncuCyte Analyzer-real time measurement of cell proliferation. The cell proliferation was measured using a label-free, noninvasive cellular confluence assay by IncuCyte Live-Cell Imaging Systems (Essen Bioscience, Ann Arbor, Mich., USA; IncuCyte FLR). This system enables collection of live cell images at 2 h intervals over several days. The IncuCyte Analyzer provides real-time cellular confluence data based on segmentation of high-definition phase-contrast images. The cell proliferation is expressed as an increase in percentage of cell confluence.

AMPK = test: Immunoblot of phosphorylated AMPK Thr-172 relative to total AMPK, MiaPaCa-2 cells; type: cell-based, human
Method: In this example, the inventors have shown that the mito-met compounds of the present invention cause an increased AMPK activation in cancer cells. In preliminary experiments (FIG. 4), human MiaPaCa2 and murine FC1199 PDAC cells treated 30 min with 1 μM mito-met (MM), 1 mM Met, or the oligomycin positive control were lysed, and proteins size-separated on SDS-PAGE, transferred to PVDF, and probed with an antibody to phosphorylated AMPK Thr-172.
Immunoblotting. MiaPaCa-2 PDAC cells (1×10^6) were plated to 80% confluency in 60 mm dishes and then serum-starved for 5 hours. […] Cells were stimulated with oligomycin as a positive control. After stimulation, cells were washed twice in cold PBS and lysed using a modified RIPA buffer. Lysates were normalized for protein concentration, size separated using reducing SDS-PAGE, electro-transferred to PVDF membranes (Millipore) and then probed using primary and horseradish peroxidase-conjugated secondary antibodies. Antibodies against total or phosphorylated 5′ AMP-activated protein kinase (AMPK) were purchased from Cell Signaling Technology (Danvers, Mass.) and used at the manufacturer's recommended dilutions. Proteins were visualized by chemiluminescence with auto-exposure and quantified by densitometric analysis using the FluorChem HD2 from Cell Biosciences (Santa Clara, Calif.).
AMPK activation in Mito-Met and Met-treated PDAC cells. […]

MiaPaCa-2 cells [1] = test: Clonogenic (colony formation) assay; type: cell-based, human
Method: Clonogenic assay. […] The plates were kept within the incubator and media changed every 3-4 days until the control cells formed sufficiently large clones. The cell survival fractions were calculated as previously described.
MiaPaCa-2 cells were treated with a range of concentrations as shown (FIG. 10C), and the number of colonies formed were counted.

MiaPaCa-2 cells [2] = test: Intracellular uptake by LC-MS/MS
Method: Cells were grown on 10 cm dishes and treated with the compounds for 24 h in full media.
Next we investigated the relative uptake of different Mito-Met analogs (Mito-Met2, Mito-Met6, and Mito-Met10) and phenformin in MiaPaCa-2 cells (FIG. 12D). Cells were treated with respective Mito-Met analog (1 μM) for 1 h. Cells were lysed after washing and analyzed for Mito-Met analog by LC-MS.

MiaPaCa-2 cells [3] = test: Oxygen consumption rate in intact cells, Seahorse XF96; type: cell-based, human; settings: for effect on OCR: immediate
Method: (§1) Respiratory enzyme activity in intact and permeabilized cells. The mitochondrial function in intact and permeabilized pancreatic cancer cells was measured using a Seahorse XF96 Extracellular Flux Analyzer (Seahorse Bioscience, North Billerica, Mass., USA). Unless specified otherwise, assays in intact cells were performed as previously described. Measurement of mitochondrial respiratory complexes in permeabilized cells was performed according to the manufacturer's instructions (Seahorse Bioscience). Briefly, intact cells were permeabilized using 1 nM Plasma Membrane Permeabilizer (PMP, Seahorse Bioscience) immediately before oxygen consumption rate (OCR) measurement by XF96. The oxygen consumption derived from mitochondrial complex I or complex II activity was measured by providing different substrates to mitochondria, e.g., pyruvate/malate for complex I and succinate for complex II activity. Rotenone, malonate and antimycin A were used as specific inhibitors of mitochondrial complex I, II and III activities, respectively.
Effects of Met and Mito-Met analogs on mitochondrial bioenergetics in MiaPaCa-2 cells. The oxygen consumption rate (OCR) and the extracellular acidification rate (ECAR) were measured as a readout of mitochondrial function and glycolysis using a Seahorse Bioscience XF96 extracellular flux analyzer. We compared the immediate OCR changes in response to different concentrations (e.g., IC50 or higher values determined by clonogenic assay) of Met, Mito-Met2, Mito-Met6, Mito-Met10, and phenformin (FIG. 13A).
Next we monitored the mitochondrial OCR changes in MiaPaCa-2 cells after 24 h treatment with Met, Mito-Met analogs, and phenformin followed by a washout of the treatments and return to fresh cell culture media.

mitochondrial complex I = mitochondrial complex I (Homo sapiens, UniProt O75251+O75306+P03886); test: Complex I oxygen consumption (pyruvate/malate) in permeabilized cells, Seahorse XF96; type: cell-based
Method: as §1
The oxygen consumption rate was measured using the permeabilized MiaPaCa-2 cells in MAS buffer supplemented with pyruvate. The use of permeabilized cells avoids differences in cellular uptake of compounds. […] We tested the effect of pretreating cells with Mito-Met10 or Met using the permeabilized model. MiaPaCa-2 cells were treated with Met and Mito-Met10 for 24 h and the oxygen consumption studies were performed in these cells after permeabilization.

[4] = mouse
Method: In an initial proof-of-concept experiment, syngeneic KPC cells expressing Firefly luciferase (FC1242-luc) were orthotopically implanted to the pancreas of C57BL/6 mice and tumor growth monitored using bioluminescence imaging (FIG. 15F). Mice orthotopically autografted with FC1242-luc cells were treated daily with 1 mg/kg or 150 mg/kg Met, or 1 mg/kg Mito-Met. […] Serum from these animals was collected, and hepatic and kidney toxicity tested using standard AST, ALT, AP, and BUN assays, respectively.

Sequence of mitochondrial complex I (O75306 34-463): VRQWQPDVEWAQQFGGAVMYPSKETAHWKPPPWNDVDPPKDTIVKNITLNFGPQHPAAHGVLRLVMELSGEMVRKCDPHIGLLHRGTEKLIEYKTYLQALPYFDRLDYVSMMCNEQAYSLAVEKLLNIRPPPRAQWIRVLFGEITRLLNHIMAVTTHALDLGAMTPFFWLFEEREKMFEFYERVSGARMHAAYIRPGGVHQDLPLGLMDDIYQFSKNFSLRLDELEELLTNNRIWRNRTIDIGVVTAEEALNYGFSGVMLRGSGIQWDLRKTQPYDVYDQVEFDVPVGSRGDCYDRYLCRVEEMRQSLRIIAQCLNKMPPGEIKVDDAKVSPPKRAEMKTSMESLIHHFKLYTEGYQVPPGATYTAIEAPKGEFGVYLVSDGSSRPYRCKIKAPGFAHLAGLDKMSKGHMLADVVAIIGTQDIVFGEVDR
Sequence of mitochondrial complex I (O75251 39-213): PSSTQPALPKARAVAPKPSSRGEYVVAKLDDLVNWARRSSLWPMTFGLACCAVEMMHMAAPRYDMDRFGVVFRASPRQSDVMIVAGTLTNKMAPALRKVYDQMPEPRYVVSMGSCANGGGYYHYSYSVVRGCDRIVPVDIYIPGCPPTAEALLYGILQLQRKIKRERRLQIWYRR
Sequence of mitochondrial complex I (P03886 whole entry): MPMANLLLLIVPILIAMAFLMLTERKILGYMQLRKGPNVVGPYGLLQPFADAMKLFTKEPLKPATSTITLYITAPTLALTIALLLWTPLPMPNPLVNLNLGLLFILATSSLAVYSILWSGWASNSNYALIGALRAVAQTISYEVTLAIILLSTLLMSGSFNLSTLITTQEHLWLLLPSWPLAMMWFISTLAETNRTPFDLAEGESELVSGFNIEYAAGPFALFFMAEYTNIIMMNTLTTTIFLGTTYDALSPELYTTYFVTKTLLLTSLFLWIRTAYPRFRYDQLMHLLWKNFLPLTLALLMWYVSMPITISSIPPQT
Sequence of mitochondrial complex I (O75489 37-264, further chain): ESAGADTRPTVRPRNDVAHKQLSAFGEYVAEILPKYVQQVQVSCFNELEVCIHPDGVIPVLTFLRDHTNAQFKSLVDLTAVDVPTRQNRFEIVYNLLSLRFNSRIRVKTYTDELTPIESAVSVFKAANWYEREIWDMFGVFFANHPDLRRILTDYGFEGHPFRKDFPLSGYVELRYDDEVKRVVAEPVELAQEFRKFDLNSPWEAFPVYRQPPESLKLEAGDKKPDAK
Sequence of mitochondrial complex I (P03897 whole entry, further chain): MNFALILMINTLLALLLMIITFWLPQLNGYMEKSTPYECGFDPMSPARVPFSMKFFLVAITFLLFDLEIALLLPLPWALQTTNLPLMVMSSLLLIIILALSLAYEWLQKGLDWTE

With `Br.N=C(N)NC(=N)NCCCCCCCCCC[P+](c1ccccc1)(c1ccccc1)c1ccccc1` [Mito-Met10] the “effect on cell confluence” value (MCF-10A) was “not significantly affected”, the “potency of AMPK activation relative to metformin” value (AMPK; MiaPaCa-2) was ~1,000 fold and the “increase in active AMPK (phosphorylated relative to total protein)” value (AMPK; human MiaPaCa-2, 1 μM, 30 min) was 1.5-2.5 fold. For the same compound, the colony formation (MiaPaCa-2 cells [1]; 3 μM, 24 h) was “Almost no colony formation”, the IC50 (MiaPaCa-2 cells [1]; read-out: IC50, colony formation / survival fraction, MiaPaCa-2, 24 h treatment) was 1100 nM and the “difference in intracellular uptake and retention, MiaPaCa-2 and MCF-10A cells” value (MiaPaCa-2 cells [2]; LC-MS) was “four-fold”. For the same compound, the “cellular uptake relative to phenformin” value (MiaPaCa-2 cells [2]; MiaPaCa-2, LC-MS) was ~100 fold, the “concentration at which OCR was inhibited” value (MiaPaCa-2 cells [3]; 24 h treatment, washout) was 1 µM and the “effect on OCR” value (MiaPaCa-2 cells [3]; 1 μM) was “did not inhibit OCR”. The “effect on OCR” value (MiaPaCa-2 cells [3]; ≈10 μM) was “slight inhibition”, the “concentration giving significant decrease in OCR (complex I inhibition)” value (mitochondrial complex I; 24 h treatment, then permeabilized) was 0.75 µM and the “fold more effective than Met in inhibiting complex I-mediated oxygen consumption” value (mitochondrial complex I; MiaPaCa-2) was 2,000 fold. For the same compound, the IC50 (mitochondrial complex I; read-out: IC50, mitochondrial complex I-mediated oxygen consumption, MiaPaCa-2, 24 h pretreatment, then permeabilized) was 400 nM and ~430 nM, the “toxicity in vivo (hepatic and kidney)” value [4] was “neither Met nor the mitochondria-targeted analog Mito-Met elicited toxicity” and the Kidney BUN ([4]; in vivo, 1 mg/kg) was 27 ± 4 mg/dL. For the same compound, the “Liver ALT” value ([4]; in vivo, 1 mg/kg) was 26 ± 10 IU/L and the “Liver AST” value ([4]; in vivo, 1 mg/kg) was 89 ± 16 IU/L.
